Data taken from article PMC6001238, “Iterative Chemical Engineering of Vancomycin Leads to Novel Vancomycin Analogs With a High in Vitro Therapeutic Index” (Frontiers in Microbiology, 2018).
In brackets after ≈: the same amount, converted by molar mass. Like-named read-outs stand apart in the source and are kept apart here.

Key:
S. aureus VISA/HIP5827 = assay: MIC, broth microdilution, vancomycin-intermediate S. aureus VISA HIP5827; format: cell-based, Staphylococcus aureus; conditions: for MIC: Staphylococcus aureus VISA/HIP5827, read-out: MIC; for MIC-fold improvement vs. vancomycin: VISA/HIP5827, ratio of MIC of vancomycin and MIC of analogue
Summary of the method: (§1)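 Serial dilutions in broth, set up per CLSI guidance, gave the MIC. Where noted, test analogues or comparator antibiotics were combined with vancomycin at 10 μM final. Controls: ultrapure water, broth without inoculum.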

MRSA KS6 = assay: MIC, broth microdilution, MRSA KS6; format: cell-based, Staphylococcus aureus; conditions: for MIC-fold improvement vs. vancomycin: MRSA KS6, ratio of MIC of vancomycin and MIC of analogue; for MIC: Staphylococcus aureus MRSA KS6, read-out: MIC
Summary of the method: as §1

S. aureus VRSA = assay: MIC, broth microdilution, vancomycin-resistant S. aureus (VRSA); format: cell-based, Staphylococcus aureus; conditions: for MIC-fold improvement vs. vancomycin: VRSA, ratio of MIC of vancomycin and MIC of analogue; for MIC: Staphylococcus aureus VRSA, read-out: MIC
Summary of the method: as §1

E. faecalis VRE 53 = assay: MIC, broth microdilution, vancomycin-resistant E. faecalis VRE 53 (VanA); format: cell-based, Enterococcus faecalis; conditions: for MIC: Enterococcus faecalis VRE 53 (vancomycin-resistant), read-out: MIC; for MIC-fold improvement vs. vancomycin: VRE 53, ratio of MIC of vancomycin and MIC of analogue
Summary of the method: as §1

MRSA KS89 = assay: MIC, broth microdilution, MRSA KS89; format: cell-based, Staphylococcus aureus; conditions: for MIC-fold improvement vs. vancomycin: ratio of MIC of vancomycin and MIC of analogue; for MIC: read-out: MIC
Summary of the method: as §1

[1] = system: human cervix carcinoma (HeLa) cells; assay: Cytostatic activity, HeLa cell proliferation; format: cell-based; conditions: mean ± SD of three experiments; highest concentration tested 250 µM; 4 days; read-out: Toxicity (IC50) HeLa
Summary of the method: (§2)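 Suspensions (300,000–500,000 cells/mL) combined with equal volumes of diluted compound; 37°C; L1210 2 d / CEM 3 d / HeLa 4 d; counted by Coulter counter; IC50 vs untreated wells.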

E. faecalis VSE 1 = assay: MIC, broth microdilution, vancomycin-sensitive E. faecalis (VSE 1); format: cell-based, Enterococcus faecalis; conditions: for MIC: Enterococcus faecalis VSE 1 (vancomycin-sensitive), read-out: MIC; for MIC-fold improvement vs. vancomycin: VSE 1, ratio of MIC of vancomycin and MIC of analogue
Summary of the method: as §1

E. faecalis VRE 29 = assay: MIC, broth microdilution, vancomycin-resistant E. faecalis VRE 29 (VanA); format: cell-based, Enterococcus faecalis; conditions: for MIC: Enterococcus faecalis VRE 29 (vancomycin-resistant), read-out: MIC; for MIC-fold improvement vs. vancomycin: VRE 29, ratio of MIC of vancomycin and MIC of analogue
Summary of the method: as §1

E. faecalis VRE 6 = assay: MIC, broth microdilution, vancomycin-resistant E. faecalis VRE 6 (VanA); format: cell-based, Enterococcus faecalis; conditions: for MIC: Enterococcus faecalis VRE 6 (vancomycin-resistant), read-out: MIC; for MIC-fold improvement vs. vancomycin: VRE 6, ratio of MIC of vancomycin and MIC of analogue
Summary of the method: as §1

MRSA KS2 = assay: MIC, broth microdilution, MRSA KS2; format: cell-based, Staphylococcus aureus; conditions: for MIC-fold improvement vs. vancomycin: MRSA KS2, ratio of MIC of vancomycin and MIC of analogue; for MIC: Staphylococcus aureus MRSA KS2, read-out: MIC
Summary of the method: as §1

[2] = system: human T-lymphocyte (CEM) cells; assay: Cytostatic activity, CEM cell proliferation; format: cell-based; conditions: mean ± SD of three experiments; highest concentration tested 250 µM; 3 days; read-out: Toxicity (IC50) CEM
Summary of the method: as §2

[3] = system: Murine leukemia (L1210) cells; assay: Cytostatic activity, L1210 cell proliferation; format: cell-based; conditions: mean ± SD of three experiments; highest concentration tested 250 µM; 2 days; read-out: Toxicity (IC50) L1210
Summary of the method: as §2

MRSA KS1 = assay: MIC, broth microdilution, MRSA KS1; format: cell-based, Staphylococcus aureus; conditions: for MIC-fold improvement vs. vancomycin: MRSA KS1, ratio of MIC of vancomycin and MIC of analogue; for MIC: Staphylococcus aureus MRSA KS1, read-out: MIC
Summary of the method: as §1

E. faecalis VRE 37 = assay: MIC, broth microdilution, vancomycin-resistant E. faecalis VRE 37 (VanA); format: cell-based, Enterococcus faecalis; conditions: for MIC: Enterococcus faecalis VRE 37 (vancomycin-resistant), read-out: MIC
Summary of the method: as §1

[4] = system: L1210, CEM and HeLa cell lines; assay: Cytostatic activity, average or summary over L1210, CEM and HeLa; format: cell-based; conditions: average of L1210, CEM and HeLa; read-out: Toxicity (IC50) Average
Summary of the method: as §2

[5] = system: S. aureus VSSA (ATCC 6538); assay: MIC, broth microdilution, vancomycin-sensitive S. aureus (VSSA/MSSA, ATCC 6538); format: cell-based, Staphylococcus aureus; conditions: for MIC: Staphylococcus aureus VSSA, read-out: MIC; for MIC-fold improvement vs. vancomycin: VSSA, ratio of MIC of vancomycin and MIC of analogue
Summary of the method: as §1

MIC (S. aureus VISA/HIP5827)	MIC-fold improvement vs. vancomycin (S. aureus VISA/HIP5827)	MIC-fold improvement vs. vancomycin (MRSA KS6)	MIC (MRSA KS6)	MIC-fold improvement vs. vancomycin (S. aureus VRSA)	MIC (E. faecalis VRE 53)	MIC-fold improvement vs. vancomycin (E. faecalis VRE 53)	MIC (E. faecalis VSE 1)	MIC-fold improvement vs. vancomycin (E. faecalis VSE 1)	MIC (E. faecalis VRE 29)	MIC-fold improvement vs. vancomycin (E. faecalis VRE 29)	MIC (E. faecalis VRE 6)	MIC-fold improvement vs. vancomycin (E. faecalis VRE 6)	MIC-fold improvement vs. vancomycin (MRSA KS2)	MIC (MRSA KS2)	MIC-fold improvement vs. vancomycin (MRSA KS1)	MIC (MRSA KS1)	SMILES	IC50 [1]	IC50 [2]	IC50 [3]	other results
0.39 µM (≈ 0.65 µg/mL)	16	2	0.39 µM (≈ 0.65 µg/mL)	32	25 µM (≈ 41.6 µg/mL)	16	0.20 µM (≈ 0.333 µg/mL)	8	6.25 µM (≈ 10.4 µg/mL)	64	3.13 µM (≈ 5.21 µg/mL)	64	2	0.39 µM (≈ 0.65 µg/mL)	2	0.39 µM (≈ 0.65 µg/mL)	CNC(CC(C)C)C(=O)NC1C(=O)NC(CC(N)=O)C(=O)NC2C(=O)NC3C(=O)NC(C(=O)NC(C(=O)NCCCNC(=O)c4cc5ccccc5s4)c4cc(O)cc(O)c4-c4cc3ccc4O)C(O)c3ccc(c(Cl)c3)Oc3cc2cc(c3OC2OC(CO)C(O)C(O)C2OC2CC(C)(N)C(O)C(C)O2)Oc2ccc(cc2Cl)C1O (stereo not drawn) [Vanc-26]	42 ± 23 µM	> 250 µM	> 250 µM	MIC-fold improvement vs. vancomycin (MRSA KS89; MRSA KS8): 2; MIC (MRSA KS89; Staphylococcus aureus MRSA KS8): 0.39 µM (≈ 0.65 µg/mL); MIC (E. faecalis VRE 37): 12.5 µM (≈ 20.8 µg/mL); IC50 [4]: 181 µM; MIC [5]: 0.39 µM (≈ 0.65 µg/mL); MIC-fold improvement vs. vancomycin [5]: 2
0.78 µM (≈ 1.35 µg/mL)	8	4	0.20 µM (≈ 0.347 µg/mL)	128	25 µM (≈ 43.3 µg/mL)	16	0.10 µM (≈ 0.173 µg/mL)	16	6.25 µM (≈ 10.8 µg/mL)	64	6.25 µM (≈ 10.8 µg/mL)	32	4	0.20 µM (≈ 0.347 µg/mL)	4	0.20 µM (≈ 0.347 µg/mL)	CCCCCCn1cc(-c2ccc(NC(=O)CNC(=O)C3NC(=O)C4NC(=O)C(NC(=O)C5NC(=O)C(CC(N)=O)NC(=O)C(NC(=O)C(CC(C)C)NC)C(O)c6ccc(c(Cl)c6)Oc6cc5cc(c6OC5OC(CO)C(O)C(O)C5OC5CC(C)(N)C(O)C(C)O5)Oc5ccc(cc5Cl)C4O)c4ccc(O)c(c4)-c4c(O)cc(O)cc43)cc2)nn1 (stereo not drawn) [Vanc-92]	98 ± 12 µM	31 ± 7 µM	95 ± 75 µM	MIC (S. aureus VRSA): 0.78 µM (≈ 1.35 µg/mL); MIC-fold improvement vs. vancomycin (MRSA KS89; MRSA KS8 (head; KS89 in title)): 4; MIC (MRSA KS89; Staphylococcus aureus MRSA KS8 (head; KS89 in title)): 0.20 µM (≈ 0.347 µg/mL); MIC (E. faecalis VRE 37): 6.25 µM (≈ 10.8 µg/mL); MIC-fold improvement vs. vancomycin (E. faecalis VRE 37; VRE 37, ratio of MIC of vancomycin and MIC of analogue): 64; IC50 [4]: 75 µM; MIC [5]: 0.20 µM (≈ 0.347 µg/mL); MIC-fold improvement vs. vancomycin [5]: 4

SMILES	MIC (S. aureus VISA/HIP5827)	MIC-fold improvement vs. vancomycin (S. aureus VISA/HIP5827)	MIC-fold improvement vs. vancomycin (MRSA KS6)	MIC (MRSA KS6)	MIC-fold improvement vs. vancomycin (S. aureus VRSA)	MIC (E. faecalis VRE 53)	MIC-fold improvement vs. vancomycin (E. faecalis VRE 53)	MIC (E. faecalis VSE 1)	MIC-fold improvement vs. vancomycin (E. faecalis VSE 1)	MIC (E. faecalis VRE 29)	MIC-fold improvement vs. vancomycin (E. faecalis VRE 29)	MIC (E. faecalis VRE 6)	MIC-fold improvement vs. vancomycin (E. faecalis VRE 6)	MIC-fold improvement vs. vancomycin (MRSA KS2)	MIC (MRSA KS2)	MIC-fold improvement vs. vancomycin (MRSA KS1)	MIC (MRSA KS1)	IC50 [1]	IC50 [2]	IC50 [3]	other results
CN[C@H](CC(C)C)C(=O)N[C@H]1C(=O)N[C@@H](CC(N)=O)C(=O)N[C@H]2C(=O)N[C@H]3C(=O)N[C@H](C(=O)N[C@H](C(=O)NCCNC(=O)/C=C/c4ccc(Cl)cc4Cl)c4cc(O)cc(O)c4-c4cc3ccc4O)[C@H](O)c3ccc(c(Cl)c3)Oc3cc2cc(c3O[C@@H]2O[C@H](CO)[C@@H](O)[C@H](O)[C@H]2O[C@H]2C[C@](C)(N)[C@H](O)[C@H](C)O2)Oc2ccc(cc2Cl)[C@H]1O [Vanc-51]	0.78 µM (≈ 1.32 µg/mL)	8	4	0.20 µM (≈ 0.338 µg/mL)	256	12.5 µM (≈ 21.1 µg/mL)	32	0.39 µM (≈ 0.659 µg/mL)	4	12.5 µM (≈ 21.1 µg/mL)	32	6.25 µM (≈ 10.6 µg/mL)	32	4	0.20 µM (≈ 0.338 µg/mL)	4	0.20 µM (≈ 0.338 µg/mL)	106 ± 21 µM	82 ± 21 µM	80 ± 13 µM	MIC (S. aureus VRSA): 0.39 µM (≈ 0.659 µg/mL); MIC-fold improvement vs. vancomycin (MRSA KS89; MRSA KS8): 4; MIC (MRSA KS89; Staphylococcus aureus MRSA KS8): 0.20 µM (≈ 0.338 µg/mL); MIC (E. faecalis VRE 37): 12.5 µM (≈ 21.1 µg/mL); IC50 [4]: 89 µM; MIC [5]: 0.39 µM (≈ 0.659 µg/mL); MIC-fold improvement vs. vancomycin [5]: 2
